Measurements: patent US20040029736A1, “Promoting early establishment of potato crops by ethylene inhibitors” (Valent BioSciences Corporation, priority 2002, published 2004)
Where two headings read alike, the source gives them in different places.

Experiments:
[1] = system: potato microtubers; conditions: potato explants treated during initiation and growth phases of microtuber development; Suttle 1998; cited from earlier work
[2] = system: potato tubers; experiment: Example 5: sprout number and emergence from soil of MCP gas-treated potato tubers at 10° C. (Table 5); type: in vivo, Solanum tuberosum Linn; conditions: for number of emerged sprouts per potato tuber: 50 ppm MCP; for % Emergence / Sprouts/Tuber: 50 ppm MCP for 20 hr, in soil
Procedure: Potato tubers were treated with 50 ppm MCP in a closed plastic drum (30 gallon) for 20 hr and untreated potatoes served as the control. Each treatment consisted of 9 potato tubers. The treated potatoes were then planted in soil in plastic trays and placed in a ventilated chamber at 10° C. […]

[3] = system: potato tubers; conditions: cited from earlier work; for release from dormancy and sprouting of potato tubers: literature (Alam 1994; Minato 1979; Rama 1981; Rylski 1974)
[4] = system: potato tubers; experiment: Example 4: sprout number and length of potato tubers dipped in AVG or ethephon (Table 4); type: in vivo, Solanum tuberosum Linn; conditions: 1000 ppm ethephon dip; for Sprout length (cm) / Sprouts/potato: 20° C., in soil, dark chamber, 21 days after treatment
Procedure: Potato tubers were dipped in 2000 ppm AVG or 1000 ppm ethephon solution and water-dipped potatoes served as the control. Each treatment consisted of 9 potato tubers. The treated potatoes were then put in plastic trays and placed in dark ventilated chamber at 20° C. […]

[5] = Gold Rush, 15 days after treatment
[6] = Gold Rush, 18 days after treatment
[7] = Norkotah, 15 days after treatment
[8] = Norkotah, 18 days after treatment
[9] = Russet Burbank, 15 days after treatment
[10] = Russet Burbank, 18 days after treatment
[11] = Superior, 15 days after treatment
[12] = Superior, 18 days after treatment

SMILES: C1=CC2C=CC1C2 [2,5-norbomadiene]
- sprouting of microtubers [1]: caused precocious sprouting

SMILES: CC1=CC1 [MCP, 1-methylcyclopropene]
- number of emerged sprouts per potato tuber ([2]; Russet Burbank, Norkotah, and Gold Rush): increased
- number of emerged sprouts per potato tuber ([2]; Superior): not
- % Emergence [2, 5]: 44%
- Sprouts/Tuber [2, 5]: 0.8 B
- % Emergence [2, 6]: 56%
- Sprouts/Tuber [2, 6]: 1.3 B
- % Emergence [2, 7]: 78%
- Sprouts/Tuber [2, 7]: 1.7 B
- % Emergence [2, 8]: 78%
- Sprouts/Tuber [2, 8]: 2.0 B
- % Emergence [2, 9]: 100%
- Sprouts/Tuber [2, 9]: 2.4 B
- % Emergence [2, 10]: 100%
- Sprouts/Tuber [2, 10]: 2.9 B
- % Emergence [2, 11]: 89%
- Sprouts/Tuber [2, 11]: 1.2 A
- % Emergence [2, 12]: 89%
- Sprouts/Tuber [2, 12]: 1.6 A

SMILES: O=P(O)(O)CCCl [ethephon, 2-chloroethyl phosphonic acid]
- release from dormancy and sprouting of potato tubers [3]: enhances release from dormancy and increases sprouting
- sprouting ([4]; Russet Burbank and Superior): stimulate sprouting
- sprout elongation ([4]; potato tubers): did not
- Sprout length (cm) ([4]; Russet Burbank): 15.6 A cm
- Sprouts/potato ([4]; Russet Burbank): 10.8 B
- Sprout length (cm) ([4]; Superior): 16.8 AB cm
- Sprouts/potato ([4]; Superior): 9.9 B

SMILES: C=C [ethylene]
- release from dormancy and sprouting of potato tubers [3]: enhances release from dormancy and increases sprouting
- sprout elongation ([3]; literature (Minato 1979; Rylski 1974)): inhibit sprout elongation

SMILES: O=[N+]([O-])[O-].[Ag+] [silver nitrate]
- sprouting of microtubers [1]: caused precocious sprouting
